Measured values reported in BindingDB's records for patent US11529321 (Wigen Biomedicine Technology (Shanghai), 2022).

Target: Microtubule-associated proteins 1A/1B light chain 3B (Homo sapiens, UniProt Q9GZQ8)
Experiment: Molecular Level Experiments of Targeting LC3B

IC50, in the range around 9 µM:
O=C1CC(c2ccccc2)CC(=O)C1=CNCCN1CCN(C(=S)Nc2cccc(Cl)c2)CC1 (stereo not drawn) [US11529321, Compound 31]
C=CCNC(=S)N1CCN(CCNC=C2C(=O)CC(c3ccco3)CC2=O)CC1 (stereo not drawn) [US11529321, Compound 39]
CCCCCC(=O)N1CCN(CCNC=C2C(=O)CC(c3ccco3)CC2=O)CC1 (stereo not drawn) [US11529321, Compound 58]
